Earlier results in US7232821B2, “(2-((2-alkoxy)-phenyl) -cyclopent-1enyl) aromatic carbo and heterocyclic acid and derivatives” (Glaxo Group Limited, priority 2002, dated 2007).

Tests used:
[1] = test system: rodent model of post-operative pain
[2] = test system: rat model of chronic constriction injury

In the case of `Cc1cc(Cl)ccc1S(=O)(=O)NC[C@H]1C2CCC(CC2)[C@@H]1/C=C\CCCC(=O)O` [ONO-8711], the mechanical hyperalgesia [1] is listed as “inhibits mechanical hyperalgesia” and the hyperalgesia and allodynia [2] is listed as “reduces hyperalgesia and allodynia”.
